Source: PubChem BioAssay (NCI)
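96-well plates; 48 h exposure; 5 concentrations. Endpoints by linear interpolation between flanking doses. Not reached: highest tested concentration assigned. Here, GI50 denotes the concentration required for 50% inhibition of growth. TGI denotes the concentration required for complete inhibition of growth.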

What was measured:
Test in all cases: NCI-60 cell line screen, 48 h
786-0 renal = test system: 786-0 renal
HCC-2998 colon = test system: HCC-2998 colon
HOP-62 NSCLC = test system: HOP-62 NSCLC
HT29 colon = test system: HT29 colon
MALME-3M melanoma = test system: MALME-3M melanoma
MOLT-4 leukemia = test system: MOLT-4 leukemia
NCI-H522 lung = test system: NCI-H522 lung
UACC-257 melanoma = test system: UACC-257 melanoma
UACC-62 melanoma = test system: UACC-62 melanoma
UO-31 renal = test system: UO-31 renal

Row | SMILES | GI50 (786-0 renal) [µM] | TGI (786-0 renal) [µM] | GI50 (HCC-2998 colon) [µM] | TGI (HCC-2998 colon) [µM] | GI50 (HOP-62 NSCLC) [µM] | TGI (HOP-62 NSCLC) [µM] | GI50 (HT29 colon) [µM] | TGI (HT29 colon) [µM] | GI50 (MALME-3M melanoma) [µM] | TGI (MALME-3M melanoma) [µM] | GI50 (MOLT-4 leukemia) [µM] | TGI (MOLT-4 leukemia) [µM] | GI50 (NCI-H522 lung) [µM] | TGI (NCI-H522 lung) [µM] | GI50 (UACC-257 melanoma) [µM] | TGI (UACC-257 melanoma) [µM] | GI50 (UACC-62 melanoma) [µM] | TGI (UACC-62 melanoma) [µM] | GI50 (UO-31 renal) [µM] | TGI (UO-31 renal) [µM]
1 | CC/C(=C/c1ccc(OC)cc1)[N+](=O)[O-] | 1.7 | 3.14 | 1.89 | 3.42 | 2.23 | 5.89 | 2.71 | 7.12 | 1.78 | 3.77 | 2.7 | 7.3 | 1.56 | 3.06 | 2.07 | 4.56 | 2.04 | 4.67 | 1.42 | 3.04
2 | CCN(CC)c1ccc(N=Nc2ccc(-c3nc4cccnc4s3)cc2)cc1 |  | > 100 |  | > 100 |  | > 100 |  | > 100 |  | > 100 |  | > 100 |  | > 100 |  | > 100 |  | > 100 |  | > 100
3 | CNC(=O)c1sc(-n2cnc3cc(OC)c(OC)cc32)cc1OCc1ccccc1C(F)(F)F | > 25 | > 25 | > 25 | > 25 | > 25 | > 25 | > 25 | > 25 | > 25 | > 25 | > 23.6 | > 25 | > 25 | > 25 | > 25 | > 25 | > 22.6 | > 25 | 12 | > 25
4 | COc1cccc(/C=C\C(=O)c2ccccc2)c1 | 15 | 34.2 | 8.72 | 25.7 | 20.2 | 42.1 | 3.65 | 17.5 | 14.3 | 31.4 | 6.1 | > 100 | 2.06 | 4.62 | 17.7 | 33.3 | 13.3 | 29 | 2.18 | 5.96
5 | CN(C(=O)C12C3C4C1C1C2C3C41C#N)C(C)(C)C (centres undefined) |  | > 100 |  | > 100 |  | > 100 |  | > 100 |  | > 100 |  | > 100 |  | > 100 |  | > 100 |  | > 100 |  | > 100
6 | Cc1cnc(C(=O)Nc2nc3ccc(S(=O)(=O)Nc4ccc(C(C)(C)C)cc4)cc3[nH]2)cn1 | 0.552 | 13.7 | 1.46 | 10.7 | 0.785 | 18.8 | 0.388 | 4.23 | 0.59 | 14.5 | 0.562 | 5.9 | 0.356 | 8.9 | 2.39 | 22.7 | 0.537 | 13 | 0.583 | 19.4
7 | Nc1ncc(CN2CCCC2)c(-c2ccccc2O)n1 |  | > 750 |  | > 750 |  | > 750 |  | > 750 |  | > 750 |  | > 750 |  | > 750 |  | > 750 |  | > 750 |  | > 750
8 | NS(=O)(=O)c1cccc(Nc2cc(-c3ccc(F)cc3)[nH]n2)c1 | 23.2 | > 25 | > 25 | > 25 | > 25 | > 25 | > 25 | > 25 | > 25 | > 25 | > 25 | > 25 | > 25 | > 25 | > 25 | > 25 | > 21.1 | > 25 | 14.6 | > 25
9 | CC1=Nc2ccccc2S/C1=C1/C=NC(=NC#N)N=C1C(=O)Nc1cccc(Cl)c1 |  | > 100 |  | > 100 |  | > 100 |  | > 100 |  | > 100 |  | > 100 |  | > 100 |  | > 100 |  | > 100 |  | > 100
10 | COc1ccc(/C(=C(\c2ccccc2)[N+](=O)[O-])c2ccc(OCCN3CCCC3)cc2)cc1 | 1.64 | 3.27 | 4.16 | 15.5 | 1.89 | 4.94 | 0.301 | 1.82 | 1.57 | 3.43 | 2.65 | 10.5 | 2.46 | 9.62 | 2.04 | 4.64 | 1.93 | 4.24 | 1.12 | 4.2
11 | Nc1nc(SCC#CCCl)c2[nH]cnc2n1 | 4.3 | 14.9 | 5.85 | 18.9 | 9.94 | 24.3 | 4.92 | 18.1 | 4.81 | 24 | 4.11 | 30.2 | 1.47 | 2.95 | 7.12 | 22.5 | 5.46 | 18.1 | 2.39 | 11.5
12 | N#C/C(=C/c1ccc([N+](=O)[O-])o1)c1ccccc1 |  | > 100 |  | > 100 |  | > 100 |  | > 100 |  | > 100 |  | > 100 |  | > 100 |  | > 100 |  | > 100 |  | > 100
13 | COc1cc(OC)c(/C=C/S(=O)(=O)Cc2ccc(OC)c(N)n2)c(OC)c1 | < 0.01 | > 100 | < 0.0193 | > 100 | < 0.01 | > 100 | < 0.0174 | > 54.8 | > 100 | > 100 | < 0.0214 | > 100 | < 0.01 |  | > 100 | > 100 | < 0.01 | > 100 | < 0.0126 | > 100
14 | O=C(O)CN(CCN(CC(=O)O)CC(=O)O)CC(=O)O.[Cu+2].[Na+] | > 100 | > 100 | > 100 | > 100 | 26.2 | 79.5 | > 100 | > 100 | > 100 | > 100 | > 100 | > 100 | > 100 | > 100 | > 100 | > 100 | > 100 | > 100 | > 100 | > 100
